Data: patent publication US5112594A, “Kit for preparing a technetium-99m myocardial imaging agent” (Mallinckrodt Medical, Inc., priority 1991, dated 1992)

Test: Biodistribution Data of Selected Tc-99m(III) Complexes in Guinea Pigs
Type: in vivo
Details: for Heart/Blood / Heart/Liver: ratio

Row | % Heart uptake (5 min) [% Injected dose/Organ] | % Heart uptake (60 min) [% Injected dose/Organ] | Heart/Blood (5 min) | Heart/Liver (5 min) | Heart/Blood (60 min) | Heart/Liver (60 min) | Substance
1 | 0.8 | 0.9 | 5.4 | 1.2 | 58.6 | 3.0 | trans-[1,2-bis[dihydro-2,2,5,5-tetramethyl-3(2H)furanone-4-methyleneamino]ethane]bis-[tris(2-(2-(1,3-dioxanyl))]ethylphosphine]technetium-99m(III) [Complex IV]
2 | 1.1 | 1.0 | 5.9 | 0.9 | 3.5 | 1.5 | trans-[1,2-bis[dihydro-2,2,5,5-tetramethyl-3(2H)furanthione-4-methyleneamino]ethane]-bis[tris(3-methoxypropyl)phosphine]technetium-99m (III) [Complex III]
3 | 0.9 | 0.8 | 6.1 | 1.6 | 26.5 | 5.6 | trans-[1-[dihydro-2,2,5,5-tetramethyl-3(2H)furanthione-4-methyleneamino]-2-[dihydro-2,2,5,5-tetramethyl-3(2H)furanone-4-methyleneaminoethane]bis[tris(3-methoxypropyl)phosphine]technetium-99m(III) [Complex II]

Row | Substance | % Heart uptake (5 min) [% Injected dose/Organ] | % Heart uptake (60 min) [% Injected dose/Organ] | Heart/Blood (5 min) | Heart/Liver (5 min) | Heart/Blood (60 min) | Heart/Liver (60 min)
4 | trans-[1,2-bis[dihydro-2,2,5,5-tetramethyl-3(2H)furanone-4-methyleneamino]ethane]bis[tris(3-methoxypropyl)phosphine]technetium-99m(III) [Complex I] | 0.8 | 0.9 | 4.6 | 1.5 | 35.6 | 6.6
